According to patent US5817651A, “3-arylcarbonyl-1-(C-attached-N-heteryl)-1H-indoles” (Sanofi, priority 1997, dated 1998):
Where two headings read alike, the source gives them in different places.

Experiments:
[1] = system: mouse vasa deferentia preparation; experiment: mouse vas deferens test (MVD); type: cell-based; settings: inhibition of contractions, in vitro, active at 5.0 μM or less
Description: It has been shown previously that smoking marijuana reduces intraocular pressure in man [Helper and Frank, Marijuana Smoking and Intraocular Pressure., J. Am. Med. Assoc. 217, 1392 (1971)]. Topical application or systemic injection of delta-9 tetrahydrocannabinol, a principal active ingredient in marijuana, also reduces intraocular pressure [Purnell and Gregg, delta-9 Tetrahydrocannabinol, Euphoria and Intraocular Pressure in Man., Ann. Opth. 7, 921-923 (1975); Green and Pederson, Effect of delta-9 Tetrahydrocannabinol on Aqueous Dynamics and Ciliary Body Permeability in the Rabbit Eye., Exptl. Eye Research 15, 499-507 (1973); Colasanti, Craig and Allara, Intraocular Pressure, Ocular Toxicity and Neurotoxicity after Administration of Cannabinol or Cannibigerol, Exptl. Eye Research 39, 252-259 (1984)]. Similarly, synthetic cannabinoids also reduce intraocular pressure [Green, Symunds, Oliver and Elijah, Intraocular Pressure Following Systemic Administration of Cannabinoids., Curr. Eye Research 2, 247-253 (1982); Tiedeman, Shields, Weber, Crow, Coccetto, Harris and Howes, Opthalmology, 88, 270-277 (1981); Colasanti et al., supra]. Cannabinoid receptor binding sites can be defined as those to which radio-labelled 4-(1,1-dimethylheptyl)-2,3'-dihydroxy-6'alpha-(3-hydroxypropyl)-1', 2', 3', 4', 5', 6'-hexahydrobiphenyl (CP 55940) binds in a specific and saturable manner and the binding sites are heterogeneously distributed in the brain [Devane, Dysarz, Johnson, Melvin and Howlett, Determination and Characterization of a Cannabinoid Receptor in Rat Brain, Molecular Pharm. 34, 605-613 (1988)]. Natural and synthetic cannabinoids and certain of the compounds of the present invention, as more particularly described above, bind to CP 55940 binding sites. […] It is believed that agonist activity at the cannabinoid receptor mediates the anti-glaucoma actions of cannabinoids, and that agonist activity at this receptor correlates with ocular pressure lowering actions in man. Accordingly the cannabinoid receptor agonist activity of the compounds of the present invention indicate their usefulness in reducing ocular pressure.

[2] = target: T1, Cannabinoid receptor (CP 55940 binding sites) (Rattus norvegicus, UniProt P20272); experiment: CP 55940 binding assay
T1 construct: from tissue

[3] = system: acetic acid-induced writhing; experiment: acetic acid-induced writhing assay in the rat (RW); type: in vivo; settings: for RW percent inhibition at dose 30: dose level 30; for ED50: Rattus norvegicus, po; for ED50 / RW ED50: oral administration
Procedure: (§1) Data in the developing adjuvant arthritis (AA) and plasma fibronectin (FN) assays are expressed as percent inhibition, i.e. inhibition of non-injected paw inflammation (NIP) and injected paw (RPV) and lowering of plasma fibronectin, the asterisks * and ** indicating statistical significance at the p<0.01 and p<0.05 levels, respectively. Compounds are considered active at p<0.05 level. Non-statistically significant results are recorded as "------ ". In the acetylcholine-induced abdominal constriction test, the test compounds were administered either as suspensions in gum tragacanth (GT) or as aqueous solutions prepared by addition of just sufficient dilute aqueous methanesulfonic acid (MS) or dilute aqueous lactic acid (LA) to dissolve the compound. The compounds are identified by the example number above where their preparations are described. All data in the anti-bradykinin, rat writhing and Randall-Selitto tests were obtained on oral administration.

[4] = system: acetylcholine-induced abdominal constriction; experiment: acetylcholine-induced abdominal constriction test (ACH); type: in vivo; parameters: key to ACH remark (Depr. = depressant): The abbreviations IA and Depr. represent, respectively, inactive and depressant; The abbreviations IA and Depr. represent, respectively, inactive and depressant; settings: mice; for ED50 / inhibition in vivo at 100 mg/kg: Mus musculus; for ACH remark (Depr. = depressant): remark beside the ED50; for inhibition in vivo at 100 mg/kg: dose level 100, read-out: ACH percent inhibition at dose 100
How it was run: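 Compounds were given as gum tragacanth suspensions or as aqueous solutions dissolved with dilute methanesulfonic or lactic acid.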

paw pressure = experiment: Randall-Selitto (RS) paw pressure test; type: in vivo; settings: oral administration; read-out: RS minimum effective dose, MED
Description: (§2) The test procedures used to determine the analgesic activities of the compounds have been described in detail in the prior art and are as follows: The acetylcholine-induced abdominal constriction test, which is a primary analgesic screening test designed to measure the ability of a test agent to suppress acetylcholine-induced abdominal constriction in mice, described by Collier et al., Brit. J. Pharmacol. Chemotherap. 32, 295 (1968); a modification of the anti-bradykinin test, which is also a primary analgesic screening procedure, described by Berkowitz et al., J. Pharmacol. Exptl. Therap. 177, 500-508 (1971), Blane et al., J. Pharm. Pharmacol. 19, 367-373 (1967), Botha et al., Eur. J. Pharmacol. 6, 312-321 (1969) and Deffenu et al., J. Pharm. Pharmacol. 18, 135 (1966); and the Randall-Selitto analgesic test described by Randall and Selitto, Arch. Int. Pharmacodyn., 111, 409-419 (1957).
as §1

[5] = system: adjuvant induced arthritis; experiment: developing adjuvant arthritis (AA) assay; type: in vivo; parameters: key: Non-statistically significant results are recorded as "------ "; settings: arthritic rats; printed * = p<0.01, ** = p<0.05
Procedure: Antirheumatic and anti-inflammatory activities of the compounds of the invention were determined using the developing adjuvant arthritis assay in rats and the plasma fibronectin assay in arthritic rats. The developing adjuvant arthritis assay was used in conjunction with the plasma fibronectin assay as a primary screening method in the evaluation of compounds for potential use as disease modifying anti-rheumatic drugs. The procedure used to induce arthritis in rats is a modification of the methods published by Pearson, J. Chron. Dis. 16, 863-874 (1973) and by Glenn et al., Amer. J. Vet. Res. 1180-1193 (1965). Adjuvant induced arthritis bears many of the traits of rheumatoid arthritis. It is a chronic, progressive, deforming arthritis of the peripheral joints, with a primary mononuclear cell response consisting of bone and joint space invasion by pannus. In order to detect disease modifying anti-rheumatic drug activity, drug treatment is started before the disease has become irrevocably established. Since such drugs are not designed to be administered prophylactically, drug treatment of adjuvant arthritis is initiated at a time when the disease is developing but is not yet irreversible. Animals develop significant systemic arthritic disease which can be measured by swelling of the non-injected rear paw (NIP) 15 to 20 days following an initial injection on day 1 of complete Freund's adjuvant into the right hindfoot paw.
as §1

bradykinin = experiment: anti-bradykinin test (BDK); type: in vivo; parameters: key to BDK result (po): The abbreviations IA and Depr. represent, respectively, inactive and depressant; The abbreviations IA and Depr. represent, respectively, inactive and depressant
Description: as §2, §1

[6] = Table 9, Examples, no route marked in the cell, read-out: ACH ED50
[7] = iv, Table 9, iv, read-out: ACH ED50 (iv)
[8] = Table 9, Examples, no route marked in the cell

T1 sequence (P20272 whole entry): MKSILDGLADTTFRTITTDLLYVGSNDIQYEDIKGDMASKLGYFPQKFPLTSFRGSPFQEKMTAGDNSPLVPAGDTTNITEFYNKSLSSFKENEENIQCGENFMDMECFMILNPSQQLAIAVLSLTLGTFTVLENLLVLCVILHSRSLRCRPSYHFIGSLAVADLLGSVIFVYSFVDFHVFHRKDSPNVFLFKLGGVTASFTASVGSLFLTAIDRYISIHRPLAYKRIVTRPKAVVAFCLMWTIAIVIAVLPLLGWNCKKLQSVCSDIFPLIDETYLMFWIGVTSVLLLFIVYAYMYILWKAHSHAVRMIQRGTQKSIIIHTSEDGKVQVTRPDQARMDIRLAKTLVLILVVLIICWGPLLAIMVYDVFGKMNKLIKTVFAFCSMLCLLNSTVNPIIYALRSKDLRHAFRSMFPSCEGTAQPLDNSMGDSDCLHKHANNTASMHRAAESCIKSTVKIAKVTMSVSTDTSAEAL

SMILES | IC50 ([1]; Mus musculus) | ED50 [4, 6] | ED50 [4, 7] | ED50 [3] | NIP: percent inhibition of non-injected paw inflammation [5] | RPV: percent inhibition of injected paw [5] | also measured
CN1CCCCC1Cn1cc(C(=O)c2cccc3ccccc23)c2ccccc21 (stereo not drawn) [Example 2P] | 0.22 nM | 9 mg/kg | 0.03 mg/kg |  |  |  | IC50 [2]: 1.4 nM; RW percent inhibition at dose 30 ([3]; oral): 98%; ACH ED50 (iv) ([4]; Table 9, iv): 0.05 mg/kg; ACH remark (Depr. = depressant) ([4]; Table 9): Depr.
COc1ccc(C(=O)c2c(C)n(CCC3CCCN3C)c3ccccc23)cc1 (stereo not drawn) [Example 2B] |  | 32 mg/kg | 8 mg/kg | 25 mg/kg |  |  | minimal effective dose (paw pressure): 10 mg/kg; ACH ED50 ([4]; Table 9, Examples, no route marked in the cell, listed as 2B(HCl)): 23 mg/kg
COc1ccc(C(=O)c2cn(CCC3CCCCN3C)c3ccccc23)cc1 (stereo not drawn) [Example 2F] |  | 45 mg/kg | 4 mg/kg |  |  |  | minimal effective dose (paw pressure): 3 mg/kg
COc1ccc(C(=O)c2cn(CC3CCCN3C)c3ccccc23)cc1 (stereo not drawn) [Example 2W] | 8 nM | 11 mg/kg |  | 3 mg/kg |  |  | ACH remark (Depr. = depressant) ([4]; Table 9): Depr.
COc1ccc(C(=O)c2cn(C(C)C3CCCN3C)c3ccccc23)cc1 (stereo not drawn) [Example 1AA] |  | 23 mg/kg | 5 mg/kg | 20 mg/kg |  |  | IC50 [1]: 127 nM
Cc1c(C(=O)c2cccc3ccccc23)c2ccccc2n1CC1CCCCN1C (stereo not drawn) [Example 2R] | 1 nM | 22 mg/kg |  |  | 57% | 29% | RW percent inhibition at dose 30 ([3]; oral): 100%
COc1ccc(C(=O)c2c(C)n(C3CCN(C)C3)c3ccccc23)cc1 (stereo not drawn) [Example 1X] | 150 nM | 20 mg/kg |  | 12 mg/kg | -- | 23% | 
COc1ccc(C(=O)c2c(C)n(C[C@@H]3CC[C@@H](C)N3C)c3ccccc23)cc1 (relative stereo) [Example 1Y] | 52 nM | 21 mg/kg | 2 mg/kg | 3 mg/kg | 67% | 48% | ED50 ([4]; sc, Table 9, sc, read-out: ACH ED50 (sc)): 10 mg/kg
COc1ccc(C(=O)c2c(C)n(CC3CCCCN3C)c3ccccc23)cc1 (stereo not drawn) [Example 2H] | 134 nM | 33 mg/kg |  | 22 mg/kg | 69% | 51% | 
CN1CCCCC1CCn1cc(C(=O)c2cccc3ccccc23)c2ccccc21 (stereo not drawn) [Example 2U] | 107 nM |  |  |  |  |  | RW percent inhibition at dose 30 ([3]; oral): 50%; inhibition in vivo at 100 mg/kg ([4]; Table 9): 30%
CSc1ccc(C(=O)c2c(C)n(CC3CCCN3C)c3ccccc23)cc1 (stereo not drawn) [Example 1V] | 130 nM | 25 mg/kg |  | 7 mg/kg |  |  | 
CN1CCCCC(n2cc(C(=O)c3cccc4ccccc34)c3ccccc32)C1 (stereo not drawn) [Example 2Z] | 82 nM |  |  |  | 65% |  | ACH percent inhibition at dose 30 (iv) ([4]; Table 9, dose level 30, iv): 80%
COc1ccc(C(=O)c2c(C)n(CC3CCCN(C)C3)c3ccccc23)cc1 (stereo not drawn) [Example 2D] |  | 8 mg/kg |  | 2 mg/kg | 99% | 78% | ED50 (bradykinin; oral administration): 2.4 mg/kg
CN1CCCC(Cn2cc(C(=O)c3cccc4ccccc34)c3ccccc32)C1 (stereo not drawn) [Example 1P] | 28 nM | 144 mg/kg |  |  | 38% | 43% | 
COc1ccc(C(=O)c2cn(C(C)C3CCCN3C)c3ccccc23)cc1 (stereo not drawn) [Example 1AB] |  |  |  |  |  |  | IC50 [1]: 560 nM; RW ED50 [3]: 10 mg/kg; ACH ED50 [4, 8]: 19 mg/kg
COc1ccc(C(=O)c2c(C)n(CC3CCCN3C)c3ccccc23)cc1 (racemic) [Example 2E] | 63 nM | 27 mg/kg | 6 mg/kg | 6 mg/kg | -- | 24% | minimal effective dose (paw pressure): 0.03 mg/kg; BDK result (po) (bradykinin; po): IA
Cc1c(C(=O)c2cccc3ccccc23)c2ccccc2n1CC1CCCN(C)C1 (stereo not drawn) [Example 1M] | 91 nM |  | 7 mg/kg |  |  |  | minimal effective dose (paw pressure): 0.1 mg/kg; inhibition in vivo at 100 mg/kg ([4]; Table 9): 25%
CCc1ccc(C(=O)c2c(C)n(CC3CCCN3C)c3ccccc23)cc1 (stereo not drawn) [Example 2AK] | 25 nM | 40 mg/kg |  | 7 mg/kg |  |  | 
COc1ccc(C(=O)c2c(C)n(C3CCCN(C)C3)c3ccccc23)cc1.Cl (racemic) [Example 4A, 1-(1-methyl-3-piperidinyl)-2-methyl-3-(4-methoxybenzoyl)-1H-indole hydrochloride] | 650 nM | 33 mg/kg |  |  | 50% | 26% | RW percent inhibition at dose 17 ([3]; oral, dose level 17): 57%
COc1ccc(C(=O)c2cn(CC3CCCCN3C)c3ccccc23)cc1 (stereo not drawn) [Example 2J] | 3 nM | 6 mg/kg |  | 0.5 mg/kg | 66% | 27% | ACH remark (Depr. = depressant) ([4]; Table 9): Depr.
COc1ccc(C(=O)c2c(C)n(CC3CCN(C)CC3)c3ccccc23)cc1 [Example 2AH] |  | 4 mg/kg |  |  |  |  | BDK percent inhibition at dose 3 (bradykinin; oral, dose level 3): 30%; RW percent inhibition at dose 30 ([3]; oral): 74%; ACH ED50 [4, 8]: 5 mg/kg
COc1ccc(C(=O)c2cn(CC3CCCN(C)C3)c3ccccc23)cc1 (stereo not drawn) [Example 1N] | 94 nM | 91 mg/kg |  |  |  |  | RW ED50 [3]: 28.3 mg/kg
